Data set [1] concerns male CDl albino mice. The experiment in a line: Spontaneous locomotor activity of mice (actimeter, Event-Counter). In kind it is in vivo. The method, then: (§1) In determining efficacy for the above-stated uses of gamma-aminobutyric acid transaminase inhibitors standard laboratory models are employed wherein effects on phencyclidine-induced locomotor activity are determined. One such test employed is: male CDl albino mice (weighing 30-40 grams) (Charles River, St. Aubin-les-Elbeuf, France) kept under standardized conditions (22°C, 60% relative humidity; 12 hours light - 12 hours dark cycle; water and standard diet ad libitum). Locomotor activity is determined using the Event-Counter of Columbus Instr. Corp. (Columbus, Ohio). The animals (six per cage) are brought into a room which is equipped with an actimeter, and allowed to adapt to the new environment for several hours. Phencyclidine is given 5 hours after administration of the GABA-T inhibitors. The dose of phencyclidine used is 5 µg/g in 10 µl of physiological saline, i.p. Immediately after phencyclidine administration (or of the same volume of physiological saline in the case of controls), the animals are placed individually into standard plastic cages (23 cm × 17 cm), and the actimeter is set into action. Total time of observation: 35 minutes. The scores of 5 minute intervals are integrated and stored by the computer.
(§2) In order to test "direct" effects of the drugs, locomotor activity was determined, starting 10 minutes after intraperitoneal administration of 150 mg/kg (4S)-allenylGABA, and 400 mg/kg vigabatrin, respectively.
(§3) The locomotor behavior of mice with elevated brain GABA concentrations was tested as follows: vigabatrin and (4S)-allenylGABA were administered intraperitoneally in a dose-range from 100-800 mg/kg and 50-300 mg/kg, respectively. Within this dose range whole brain GABA concentrations, as observed 5 hours post injection were between 2.5 and 10 µmol/g.

Data set [2] has as its system male CDl albino mice. The experiment in a line: Phencyclidine (PCP)-induced locomotor activity of mice (actimeter, Event-Counter). The following applies: for direct effect on phencyclidine-induced locomotor behavior (in words): 10 minutes (15 minutes) after i.p. 150 mg/kg (4S)-allenylGABA or 400 mg/kg vigabatrin (Table I). The format is in vivo. Here is the method:
as §1, §2, §3

In a further data set the test system is whole brain GABA. As to the kind of experiment: Whole brain GABA concentrations after GABA-T inhibitor administration. In kind it is in vivo, mice. To be noted: 15 minutes after administration of optimum doses.

Structures are written as SMILES.

For `C=C=C[C@@H](N)CCC(=O)O` [(4S)-allenylGABA, (S)-4-amino-5,6-heptadienoic acid], the “Spontaneous locomotor activity, Mean scores ± S.D.” value in the data set on male CDl albino mice [1] (50 mg/kg i.p., 5 h pretreatment) is 306.244 ( 6); in the data set with male CDl albino mice [1] (100 mg/kg i.p., 5 h pretreatment), 406.221 ( 6); in the data set with male CDl albino mice [1] (150 mg/kg i.p., 5 h pretreatment) it was 315.304 ( 6); in the data set with male CDl albino mice [1] (150 mg/kg i.p., given 10 minutes before physiol. saline) it was 688 ± 308 ( 6); in the data set on male CDl albino mice [1] (300 mg/kg i.p., 5 h pretreatment) it was 445.420 ( 6). Further, in the data set with male CDl albino mice [1] (600 mg/kg (not shown)), the “sedation / motor activity at very high dose” value was “sedated”. Further, in the data set with male CDl albino mice [1] (dose range from 50 to 300 mg/kg, 5 h pretreatment (Table III)), the “effect on spontaneous locomotor activity (in words)” value was “did not affect”. Moreover, the “PCP-induced locomotor activity, Mean scores ± S.D.” value (shortened to “PCP-induced locomotor activity”) with male CDl albino mice [2] (150 mg/kg i.p., given 10 minutes before phencyclidine (5 mg/kg)) was 2680 ± 1040 (11). The “direct effect on phencyclidine-induced locomotor behavior (in words)” value in the data set with male CDl albino mice [2] is “absence of an effect”. Besides, in the data set with male CDl albino mice [2] (Mus musculus, 5 h, read-out: dose giving a statistically significant difference to mice receiving only phencyclidine), the minimal effective dose was at least 100 mg/kg. For the same compound, the “phencyclidine-induced hypermotility reduced by” value in the data set on male CDl albino mice [2] (highest dose given (300 mg/kg) i.p. 5 h before phencyclidine) is recorded as 75%. In addition, the “brain GABA concentrations” value in the data set on whole brain GABA is “below 3 µmol/g”.
On to `C=C[C@H](N)CCC(=O)O` [Vigabatrin, (R)S-4-aminohex-5-enoic acid], for which the “Spontaneous locomotor activity, Mean scores ± S.D.” value is recorded as 505 ± 344 (6) in the data set on male CDl albino mice [1] (200 mg/kg i.p., 5 h pretreatment); 471 ± 306 (12) in the data set with male CDl albino mice [1] (400 mg/kg i.p., 5 h pretreatment); 528 ± 239 ( 6) in the data set with male CDl albino mice [1] (400 mg/kg i.p., given 10 minutes before physiol. saline, 35 minutes observation); 361 ± 139 (6) in the data set on male CDl albino mice [1] (600 mg/kg i.p., 5 h pretreatment); 441 ± 298 (6) in the data set on male CDl albino mice [1] (700 mg/kg i.p., 5 h pretreatment); 435 ± 275 (6) in the data set on male CDl albino mice [1] (800 mg/kg i.p., 5 h pretreatment). Moreover, in the data set with male CDl albino mice [1] (100-800 mg/kg i.p., 5 h pretreatment (Table II)), the “effect on spontaneous locomotor activity (in words)” value was “not significantly affected”. Also, the “PCP-induced locomotor activity” value in the data set with male CDl albino mice [2] (100 mg/kg i.p. 5 h before phencyclidine (5 mg/kg)) was 2360 ± 1100 (12); in the data set on male CDl albino mice [2] (200 mg/kg i.p. 5 h before phencyclidine (5 mg/kg)), 1970 ± 730 (12); in the data set with male CDl albino mice [2] (400 mg/kg i.p. 5 h before phencyclidine (5 mg/kg)), 1690 ± 1385 (12); in the data set on male CDl albino mice [2] (400 mg/kg i.p., given 10 minutes before phencyclidine (5 mg/kg)), 2460 ± 1220 (11); in the data set with male CDl albino mice [2] (600 mg/kg i.p. 5 h before phencyclidine (5 mg/kg)), 2180 ± 410 (12); in the data set on male CDl albino mice [2] (700 mg/kg i.p. 5 h before phencyclidine (5 mg/kg)), 1780 ± 1080 (12). In the data set with male CDl albino mice [2] (800 mg/kg i.p. 5 h before phencyclidine (5 mg/kg)), the “PCP-induced locomotor activity” value is given as 2100 ± 1780 (12). In the data set with male CDl albino mice [2] (400 mg/kg i.p. 5 h before phencyclidine), the “locomotor activity, lowest value, as % of that of phencyclidine-treated controls” value is 55%. Further, in the data set with male CDl albino mice [2], the “direct effect on phencyclidine-induced locomotor behavior (in words)” value was “absence of an effect”. The “brain GABA concentrations” value in the data set on whole brain GABA is “below 3 µmol/g”.

For the origin of these results see EP0509180A1, “Use of GABA-T inhibitors for the treatment of schizophrenia and phencyclidine intoxication” (MERRELL DOW PHARMACEUTICALS INC., priority 1991, dated 1992).
